The values that follow come from US20190054054A1, “Methods reducing or preventing oxidation of high density lipoprotein (HDL)” (Amarin Pharmaceuticals Ireland Limited, priority 2017, published 2019).

For one assay, the system named is HUVECs. The assay is described as follows: NO and ONOO^− release from HUVECs treated concomitantly with agents and oxLDL (Example 11, Objective 2). In kind it is cell-based, human. Particulars: oxLDL 11 mg/dL treated 30 min with agents, each at 10 μM; cells exposed 60 min. How it is done:
The omega-3 fatty acid, cis-5,8,11,14,17-eicosapentaenoic acid (EPA) and docosahexaenoic acid (DHA) were purchased from Sigma-Aldrich (Saint Louis, Mo.) and solubilized in redistilled ethanol to 11 mM under nitrogen atmosphere. EPA and DHA stock solutions were stored at −20° C. until use.
Human umbilical vein endothelial cells (HUVECs) were obtained from healthy, female donors and isolated into primary, proliferating cell cultures (Clonetics, San Diego, Calif.). The cells were incubated in 95% air/5% CO2 at 37° C. and passaged by an enzymatic (trypsin) procedure. The confluent cells (4 to 5×10^5 cells/35 mm dish) were plated with minimum essential medium containing 3 mM L-arginine and 0.1 mM BH4 [(6R)-5,6,7,8-tetrahydrobiopterin]. Before experimental use, the cells (from second or third passage) were rinsed twice with Tyrode-HEPES buffer with 1.8 mM CaCl2.
Venous blood was collected from healthy volunteers into vacutainer tubes containing sodium EDTA. Plasma was separated by centrifugation at 3000 g for 25 min at 4° C. and adjusted to a density of 1.020 g/mL with KBr. Triglyceride-rich lipoproteins (TGRL) and LDL fractions were isolated by sequential centrifugation at 70,000 rpm at 4° C. in a Beckman LE-80 ultracentrifuge using a Beckman 50.4Ti rotor (Beckman Coulter, Inc., Fullerton, Calif.). The TGRL fraction (with a relative density of <1.020) was aspirated from the top of the centrifugate and discarded, leaving an LDL-enriched infranate (with a relative density of 1.020-1.063). The LDL subfraction was retained for additional experimentation. Plasma and lipoprotein fractions were maintained at 4° C. and protected from excessive exposure to light. Prior to oxidation experiments, EDTA was removed from the lipoprotein fraction using PD-10 desalting columns (GE Healthcare, Piscataway N.J.). After equilibration of the column with phosphate buffered saline (PBS), 2.5 mL of the lipoprotein fraction was loaded on the column and the flow-through discarded. The lipoprotein was then eluted with 3 mL of PBS. The LDL fractions were further diluted with PBS to obtain a 100 μg/mL apoB100 concentration.
LDL underwent oxidation following the addition of 10 μM CuSO4. […] Sample TBARS concentrations were determined spectrophotometrically by measuring sample absorbances against a standard curve derived from the hydrolysis of 1,1,3,3-tetramethoxypropane. […]
The amperometric method (with a response time of 0.1 ms) provides a quantitative signal (current) that is directly proportional to changes (from basal levels) in NO or ONOO^− concentration. […] Basal NO or ONOO^− levels were measured by differential pulse voltammetry in separate experiments. […]

A further assay relates to unfractionated LDL. The assay can be described thus: Copper-induced oxidation of unfractionated LDL, TBARS after 2 hr (Example 6). The class given is biochemical, human.
The nature of assay [1]: Glucose- and peroxidation-induced cholesterol domain formation, small angle x-ray diffraction (Example 4). Particulars: 1:30 mole ratio; for effect on membrane structure as compared to control: at the start of the experiment (0 hours). As to the method:
Samples were shell-dried under nitrogen gas and placed under vacuum for 1 h to remove residual solvent. […] Lipid suspensions were then vortexed for 3 min at ambient temperature to form MLVs. […] Membrane lipid vesicles were oriented for x-ray diffraction analysis as described by others (e.g., Herbette et al., Biophys. […] Briefly, a 100 μL aliquot (containing 250 μg MLV) was aspirated from each sample and transferred to a Lucite® sedimentation cell fitted with an aluminum foil substrate upon which a given sample could be collected by centrifugation. Samples were then loaded into a Sorvall AH-629 swinging bucket rotor (DuPont Corp., Wilmington, Del.) and centrifuged at 35,000 g, 5° C., for 90 min. After centrifugal orientation, sample supernatants were aspirated and aluminum foil substrates, each supporting a single membrane pellet, were removed from the sedimentation cells. Sample pellets were dried for 5-10 min at ambient conditions, mounted onto curved glass supports, and placed in hermetically-sealed, brass or glass containers (for immediate analysis or temporary storage, respectively). All x-ray diffraction experiments were conducted at 20° C., 74% relative humidity. The latter was established by exposing membrane samples to saturated solutions of L-(+) tartaric acid (K2C4H4O6.½H2O). Samples were incubated at these conditions for at least 1 hour prior to experimental analysis. Oriented membrane samples were aligned at grazing incidence with respect to a collimated, mono-chromatic CuKα x-ray beam (Kα1 and Kα2 unresolved; λ=1.54 Å) produced by a Rigaku Rotaflex RU-200, high-brilliance microfocus generator (Rigaku-MSC, The Woodlands, Tex.) as previously described (Mason et al., Biophys. J., vol. 55(4), pages 769-778 (1989)). Diffraction data were collected on a one-dimensional, position-sensitive electron detector (Hecus X-ray Systems, Graz, Austria) at a sample-to-detector distance of 150 mm. […] The d-space for any given membrane multibilayer is a measurement of the unit cell periodicity of the membrane lipid bilayer (e.g., the distance from the center of one lipid bilayer to the next including surface hydration), and is calculated from Bragg's Law, h λ=2 d sin θ, where h is the diffraction order, λ is the wavelength of the x-ray radiation (1.54 Å), d is the membrane lipid bilayer unit cell periodicity, and θ is the Bragg angle equal to one-half the angle between the incident beam and scattered beam. […] Under the specific temperature and relative humidity conditions established for these experiments, the second-order, 17 Å cholesterol domain peak was well-delineated from other, neighboring cholesterol and phospholipid diffraction peaks and was thus used to quantitate relative cholesterol domain peak intensity. […]

The structures appear in SMILES notation.

As for `CC/C=C\C/C=C\C/C=C\C/C=C\C/C=C\C/C=C\CCC(=O)O` [DHA, docosahexaenoic acid], in the assay on HUVECs, the NO is 362 ± 39 and the “ONOO^−” value came out at 240 ± 27.
On to `CC/C=C\C/C=C\C/C=C\C/C=C\C/C=C\CCCC(=O)O` [EPA, cis-5,8,11,14,17-eicosapentaenoic acid], for which, in the assay on HUVECs, the NO is listed as 385 ± 43 and the “ONOO^−” value came out at 232 ± 24. Besides, the “reduction of TBARS levels” value with unfractionated LDL (10.0 μM, unfractionated LDL) was 17%. Besides, the “inhibition of relative cholesterol domain peak intensity” value in assay [1] (96-hour time point, compared to vehicle or vitamin E) was “more than 99%”. In addition, the “effect on membrane structure as compared to control” value in assay [1] (glucose 200 mg/dL) is “no appreciable effect on membrane structure”.
For the compound `Cc1c(C)c2c(c(C)c1O)CC[C@@](C)(CCC[C@H](C)CCC[C@H](C)CCCC(C)C)O2` [vitamin E, α-tocopherol], the “effect on LDL oxidation” value in the assay with unfractionated LDL (1.0 μM to 10.0 μM) is “did not inhibit LDL oxidation at any concentration”. Moreover, in assay [1] (any experimental time point, glucose 200 mg/dL), the “effect on cholesterol domain formation as compared to control” value is reported as “no significant effect on cholesterol domain formation”. Moreover, in assay [1] (glucose 200 mg/dL), the “effect on membrane structure as compared to control” value is given as “no appreciable effect on membrane structure”.
